Earlier results in patent US6436991B1, “Composition and method containing products extracted from Commiphora sp. for prevention and treatment of abnormal cell growth and proliferation in inflammation, neoplasia and cardiovascular disease” (Sabinsa Corporation, priority 2000, dated 2002).

Conditions: literature values; read-out: IC50, DPPH radical scavenging (reported, Chen and Ho 1995)

Molecule	IC50
catechin	18.6 µM
O=C(O)c1cc(O)c(O)c(O)c1 [gallic acid]	10.6 µM
